Reference: US6391564B1, “Methods and compositions utilizing Rad51” (priority 1997, dated 2002)
Where two headings read alike, the source gives them in different places.

Legend:
[1] = tested on: LNL8 fibroblasts; assay: Immunofluorescent staining of Rad51 foci in nuclei and micronuclei of LNL8 fibroblasts; format: cell-based; details: human LNL8 fibroblast cultures, non-lethal doses of 5-aza-dC
From the text: (§1) Immunofluorescent Staining.
(§2) Digital Imaging Microscopy.

[2] = tested on: TGR-1 cells
Method: To induce DSBs in DNA and recombinational repair, cell cultures were exposed to a ^137CS irradiator at doses of 900 rad and then allowed to recover for various time spans. In another experiment, cells were treated with 10 μM 5-aza-dC for 24 hrs.
Immunofluorescent Staining. Harvested cells were washed and resuspended in PBS. Cell density was adjusted to ˜10^5 cells/ml. 0.5 ml aliquots of this cell suspension were centrifuged onto clean glass slides at 800 rpm for 4 min, using a Shandon Cytospin. Immediately after cytocentrifugation, the preparations were fixed in absolute methanol for 30 min at −20° C. and then rinsed in ice-cold acetone for a few seconds. Following three washes with PBS, the preparations were incubated at 37° C. with rabbit anti-HsRad51 antiserum, diluted 1:100 with PBS, in a humidified incubator for 30 min. For some experiments, the slides were simultaneously labeled with rat anti-HsRad52 antiserum or mouse monoclonal antibody. The slides were then washed in PBS another three times for 10 min each and incubated for 30 min with fluorescein-isothiocyanate (FITC)-conjugated anti-rabbit IaG, appropriately diluted with PBS. Rad52, Gadd45, p53, and RNAPII were detected with rhodamine, conjugated anti-rat IgG or anti-mouse IgG+IgM. After three further washes with PBS, the preparations were counterstained with 1 μg/ml 4,6-diamidino-2-phenylindole (DAPI) in 2×SSC for 5 min. The slides were mounted in 90% glycerol, 0.1 M Tris-HCl, pH 8.0, and 2.3% 1,4-diazobicyclo-2,2,2-octane (DABCO).
(§3) Fluorescence In Situ End Labeling (FISEL). FISEL detects cell death (apoptosis) in situ by quantitating DNA strand breaks in individual nuclei. It uses terminal transferase (TdT) to label the 3′-ends in fragmented genomic DNA with biotinylated nucleotide. 100 μl of reaction mix contain 1 μl (25 Units) TdT (Boehringer Mannheim), 20 μl 5×TdT buffer (supplied with the enyzme), 1 μl 0.5 mM biotin-ll-dUTP, 3 μl 0.5 mM dTTP, and 75 μl ddH2O. Cytological preparations are incubated at 37° C. for 1 hr with this reaction mix. Washing the slides for 3×5 min in PBS is sufficient to terminate the reaction. The incorporated biotin-dUTP is detected with rhodarnine-conjugated avidin.
Digital Imaging Microscopy. Images were taken with a Zeiss epifluorescence microscope equipped with a thermoelectronically cooled charge coupled device (CCD) camera (Photometries CH250), which was controlled by an Apple Macintosh computer. Gray scale source images were captured separately with filter sets for FITC, rhodamine, and DAPI. Gray scale images were pseudocolored and merged using ONCOR Image and ADOBE Photoshop software.

[3] = tested on: TGR-1 cells; assay: Immunofluorescent staining of Rad51 foci in nuclei and micronuclei of TGR-1 cells; format: cell-based, rat; details: TGR-1 cultures treated with etoposide, FIG. 5D
From the text: as §1, §2

[4] = tested on: TGR-1 cells; assay: Apoptosis by fluorescence in situ end labeling (FISEL) in TGR-1 cells; format: cell-based, rat; details: After 36 hrs etoposide in culture medium
Method: Treatment with etoposide (Sedivy), a drug that inhibits DNA topoisomerase II, is a classic system for inducing apoptosis in cells (Mizumoto, et al., (1994). Mol. Pharmac. 46, 890-895).
as §3

[5] = 24 hrs 0.1 μg/ml colcemid, 1 day of recovery
[6] = 24 hrs 0.1 μg/ml colcemid, 2 days of recovery
[7] = 24 hrs 0.1 μg/ml colcemid, 3 days of recovery
[8] = 24 hrs 0.1 μg/ml colcemid, no recovery

Nc1ncn([C@H]2C[C@H](O)[C@@H](CO)O2)c(=O)n1 [5-aza-dC, 5-azadeoxycytidine] was tested, and the “cells displaying MN with focally concentrated Rad51 protein” value [1] was 5-10%.
CN[C@H]1CCc2cc(OC)c(OC)c(OC)c2-c2ccc(OC)c(=O)cc21 [Colcemid, colcemid] was tested, and the “colcemid-treated cells arrested at metaphase” value ([2]; 24 hrs 0.1 μg/ml colcemid) was 185, the “Percentage of Cells Showing Rad51+/FISEL+” value [2, 5] was 1% and the “Percentage of Cells Showing Rad51+/FISEL−” value [2, 5] was 31%. For the same compound, the “Percentage of Cells Showing Rad51−/FISEL+” value [2, 5] was 14%, the “Percentage of Cells Showing Rad51−/FISEL−” value [2, 5] was 54% and the “Percentage of Cells Showing Rad51+/FISEL+” value [2, 6] was 6%. For the same compound, the “Percentage of Cells Showing Rad51+/FISEL−” value [2, 6] was 9%, the “Percentage of Cells Showing Rad51−/FISEL+” value [2, 6] was 40% and the “Percentage of Cells Showing Rad51−/FISEL−” value [2, 6] was 45%. For the same compound, the “Percentage of Cells Showing Rad51+/FISEL+” value [2, 7] was 4%, the “Percentage of Cells Showing Rad51+/FISEL−” value [2, 7] was 7% and the “Percentage of Cells Showing Rad51−/FISEL+” value [2, 7] was 46%. For the same compound, the “Percentage of Cells Showing Rad51−/FISEL−” value [2, 7] was 43%, the “Percentage of Cells Showing Rad51+/FISEL+” value [2, 8] was 0% and the “Percentage of Cells Showing Rad51+/FISEL−” value [2, 8] was 6%. For the same compound, the “Percentage of Cells Showing Rad51−/FISEL+” value [2, 8] was 9%, the “Percentage of Cells Showing Rad51−/FISEL−” value [2, 8] was 85% and the “induced MN containing very brightly fluorescing Rad51 foci” value ([2]; colcemid-treated cells recovered 24 hrs in drug-free medium) was “over 30%”.
COc1cc([C@@H]2c3cc4c(cc3[C@@H](O[C@@H]3O[C@@H]5CO[C@@H](C)O[C@H]5[C@H](O)[C@H]3O)[C@H]3COC(=O)[C@H]23)OCO4)cc(OC)c1O [etoposide] was tested, and the “content of induced micronuclei (Rad51 protein, fragmented DNA)” value [3] was “contain Rad51 protein” and the “cells showing genome fragmentation (FISEL-positive)” value [4] was “half of the cells showed genome fragmentation”.
